Measurements: ChEMBL document CHEMBL5131388, “Discovery of novel brain-penetrant GluN2B NMDAR antagonists via pharmacophore-merging strategy as anti-stroke therapeutic agents” (Eur J Med Chem, 2022)

Legend:
[1] = Toxicity in Sprague-Dawley rat assessed as animal death at 300 mg/kg, po administered as repeated dose once daily for 2 weeks; assay type: organism-based; details: in vivo, 336 h
[2] = Half life in Sprague-Dawley rat at 10 mg/kg, po measured up to 24 hrs by LC/MS-MS analysis; assay type: ADME, organism-based; details: in vivo
[3] = Cmax in Sprague-Dawley rat at 10 mg/kg, po measured up to 24 hrs by LC/MS-MS analysis; assay type: ADME, organism-based; design: dose 10 mg/kg, time < 24 hrs, route po; details: in vivo
[4] = Tmax in Sprague-Dawley rat at 2.5 mg/kg, iv measured up to 24 hrs by LC/MS-MS analysis; assay type: ADME, organism-based; details: in vivo
[5] = AUClast in Sprague-Dawley rat at 2.5 mg/kg, iv measured up to 24 hrs by LC/MS-MS analysis; assay type: ADME, organism-based; design: dose 2.5 mg/kg, time < 24 hrs, route iv; details: in vivo
[6] = Bioavailability in Sprague-Dawley rat at 2.5 mg/kg, iv measured up to 24 hrs by LC/MS-MS analysis; assay type: ADME, organism-based; details: in vivo
[7] = Cmax in Sprague-Dawley rat at 2.5 mg/kg, iv measured up to 24 hrs by LC/MS-MS analysis; assay type: ADME, organism-based; design: dose 2.5 mg/kg, time < 24 hrs, route iv; details: in vivo
[8] = AUCinf in Sprague-Dawley rat at 10 mg/kg, po measured up to 24 hrs by LC/MS-MS analysis; assay type: ADME, organism-based; design: time < 24 hrs, dose 10 mg/kg, route po; details: in vivo
Rattus norvegicus [9] = assay: Neuroprotective activity in Sprague-Dawley rat model of middle cerebral artery occlusion-induced ischemia-reperfusion injury assessed as decrease in neurological score at 20 mg/kg, po measured 24 hrs post injury by TTC staining based histological analysis; assay type: functional
Rattus norvegicus [10] = assay: Neuroprotective activity in Sprague-Dawley rat model of middle cerebral artery occlusion-induced ischemia-reperfusion injury assessed as decrease in cerebral infarction rate at 20 mg/kg, po measured 24 hrs post injury by TTC staining based histological analysis; assay type: functional; design: scale not given: the % may be the effect or the level left
[11] = MRTinf in Sprague-Dawley rat at 10 mg/kg, po measured up to 24 hrs by LC/MS-MS analysis; assay type: ADME, organism-based; details: in vivo
[12] = Neuroprotective activity against NMDA-induced neurotoxicity in Sprague-Dawley rat hippocampal neurons assessed as increase in cell viability at 0.1 uM incubated for 18 hrs followed by NMDA addition and measured after 0.5 hrs by MTT assay; assay type: functional, Hippocampal neurone; details: time 18.5 hrs, 0.1 µM
[13] = Clearance in Sprague-Dawley rat at 2.5 mg/kg, iv measured up to 24 hrs by LC/MS-MS analysis; assay type: ADME, organism-based; details: in vivo
[14] = Toxicity in Sprague-Dawley rat assessed as change in blood pressure at 150 to 300 mg/kg, po administered as repeated dose once daily for 2 weeks; assay type: organism-based; details: in vivo, 336 h, dose 150-300 mg/kg
[15] = Half life in Sprague-Dawley rat at 2.5 mg/kg, iv measured up to 24 hrs by LC/MS-MS analysis; assay type: ADME, organism-based; details: in vivo
[16] = Toxicity in Sprague-Dawley rat assessed as change in white blood cell count at 150 to 300 mg/kg, po administered as repeated dose once daily for 2 weeks; assay type: organism-based; details: in vivo, 336 h, dose 150-300 mg/kg
[17] = Toxicity in Sprague-Dawley rat assessed as change in AST level at 150 to 300 mg/kg, po administered as repeated dose once daily for 2 weeks; assay type: organism-based; details: in vivo, 336 h, dose 150-300 mg/kg
[18] = AUCinf in Sprague-Dawley rat at 2.5 mg/kg, iv measured up to 24 hrs by LC/MS-MS analysis; assay type: ADME, organism-based; design: dose 2.5 mg/kg, time < 24 hrs, route iv; details: in vivo
[19] = Ratio AUClast in Sprague-Dawley rat brain to plasma at 10 mg/kg, po measured up to 24 hrs by LC/MS-MS analysis; assay type: ADME, organism-based; details: brain and plasma
[20] = Neuroprotective activity against NMDA-induced neurotoxicity in Sprague-Dawley rat hippocampal neurons assessed as increase in cell viability at 1 uM incubated for 18 hrs followed by NMDA addition and measured after 0.5 hrs by MTT assay; assay type: functional, Hippocampal neurone; details: time 18.5 hrs, 1 µM
[21] = Toxicity in Sprague-Dawley rat assessed as change in kidney/brain index at 150 to 300 mg/kg, po administered as repeated dose once daily for 2 weeks; assay type: organism-based; details: in vivo, 336 h, dose 150-300 mg/kg
[22] = Tmax in Sprague-Dawley rat at 10 mg/kg, po measured up to 24 hrs by LC/MS-MS analysis; assay type: ADME, organism-based; details: in vivo
[23] = Toxicity in Sprague-Dawley rat assessed as increase in AST level at 300 mg/kg, po administered as repeated dose once daily for 2 weeks; assay type: organism-based; details: in vivo, 336 h
[24] = Toxicity in Sprague-Dawley rat assessed as body weight loss at 300 mg/kg, po administered as repeated dose once daily for 2 weeks; assay type: organism-based; details: in vivo, 336 h
[25] = Toxicity in Sprague-Dawley rat assessed as change in blood glucose level at 150 to 300 mg/kg, po administered as repeated dose once daily for 2 weeks; assay type: organism-based; details: in vivo, 336 h, dose 150-300 mg/kg
[26] = Ratio AUClast in Sprague-Dawley rat brain to plasma at 2.5 mg/kg, iv measured up to 24 hrs by LC/MS-MS analysis; assay type: ADME, organism-based; details: brain and plasma
[27] = Toxicity in Sprague-Dawley rat assessed as change in ALT level at 150 to 300 mg/kg, po administered as repeated dose once daily for 2 weeks; assay type: organism-based; details: in vivo, 336 h, dose 150-300 mg/kg
[28] = Toxicity in Sprague-Dawley rat assessed as change in liver/brain index at 150 to 300 mg/kg, po administered as repeated dose once daily for 2 weeks; assay type: organism-based; details: in vivo, 336 h, dose 150-300 mg/kg
[29] = AUClast in Sprague-Dawley rat at 10 mg/kg, po measured up to 24 hrs by LC/MS-MS analysis; assay type: ADME, organism-based; design: dose 10 mg/kg, time < 24 hrs, route po; details: in vivo
Glutamate NMDA receptor = assay: Displacement of [3H] ifenprodil from Wistar rat glutamate NMDA receptor incubated for 2 hrs by scintillation counting method; assay type: protein-complex assay
[30] = Neuroprotective activity against NMDA-induced neurotoxicity in Sprague-Dawley rat hippocampal neurons assessed as increase in cell viability at 10 uM incubated for 18 hrs followed by NMDA addition and measured after 0.5 hrs by MTT assay; assay type: functional, Hippocampal neurone; details: time 18.5 hrs, 10 µM
[31] = MRTinf in Sprague-Dawley rat at 2.5 mg/kg, iv measured up to 24 hrs by LC/MS-MS analysis; assay type: ADME, organism-based; details: in vivo
[32] = Toxicity in Sprague-Dawley rat assessed as change in spleen/brain index at 150 to 300 mg/kg, po administered as repeated dose once daily for 2 weeks; assay type: organism-based; details: in vivo, 336 h, dose 150-300 mg/kg

Question: For `O=C1OC(CCCN2CCN(Cc3ccc(C(F)(F)F)cc3)CC2)c2ccccc21` (racemic), which Activity [1] is on record?
Answer: Non-Toxic

Question: What about the half-life [2] of the same compound?
Answer: 1.88 h

Question: What about the Cmax [3] of the same compound?
Answer: 972 ng/mL

Question: And the Tmax [4]?
Answer: 1.02 min

Question: And the AUC(0-t) at 24 h [5]?
Answer: 1450 ng·h/mL

Question: And the bioavailability [6]?
Answer: 63.4%

Question: And the Cmax [7]?
Answer: 2360 ng/mL

Question: What about the AUC(0-inf) [8] of the same compound?
Answer: 4070 ng·h/mL

Question: And the Activity (Rattus norvegicus [9])?
Answer: 1.88

Question: What about the Activity (Rattus norvegicus [10]) of the same compound?
Answer: 16.08%

Question: What about the MRT inf [11] of the same compound?
Answer: 3.25 h

Question: What about the Activity [12] of the same compound?
Answer: 60.14%

Question: What about the clearance [13] of the same compound?
Answer: 29.5 mL/min/kg

Question: What about the Activity [14] of the same compound?
Answer: Non-Toxic

Question: And the half-life [15]?
Answer: 1.73 h

Question: And the Activity [16]?
Answer: Non-Toxic

Question: What about the Activity [17] of the same compound?
Answer: Non-Toxic

Question: And the AUC(0-inf) [18]?
Answer: 1580 ng·h/mL

Question: And the Kp at 24 h [19]?
Answer: 0.85

Question: What about the Activity [20] of the same compound?
Answer: 78.45%

Question: And the Activity [21]?
Answer: Non-Toxic

Question: And the Tmax [22]?
Answer: 1.5 h

Question: What about the Activity [23] of the same compound?
Answer: Toxic

Question: And the Activity [24]?
Answer: Toxic

Question: And the Activity [25]?
Answer: Non-Toxic

Question: And the Kp at 24 h [26]?
Answer: 0.71

Question: What about the Activity [27] of the same compound?
Answer: Non-Toxic

Question: And the Activity [28]?
Answer: Non-Toxic

Question: What about the AUC(0-t) at 24 h [29] of the same compound?
Answer: 3670 ng·h/mL

Question: And the Ki (Glutamate NMDA receptor)?
Answer: 3.26 nM

Question: And the Activity [30]?
Answer: 89.8%

Question: What about the MRT inf [31] of the same compound?
Answer: 1.68 h

Question: What about the Activity [32] of the same compound?
Answer: Non-Toxic
